From patent US20220257704A1, “COMBINATION OF CHEMOTHERAPY WITH RECOMBINANT S. ROLFSII LECTIN” (Unichem Laboratories Ltd, priority 2018, published 2022) come the findings set out here.

Holding throughout (test): MTT cytotoxicity assay, 48 h, alone and in combination (IC50 and Combination Index)
Holding throughout (format): cell-based
A general note: Tetrazolium dyes change colour on reduction, which living cells bring about.

The test system of one experiment is T24 cell line. Conditions: for Conc. of other therapeutic agents showing synergistic effect: paired with SEQ ID NO: 1 conc. Here is the method:
(§1) The cell were kept in contact with the recombinant lectin of SEQ ID NO: 1 and the chemotherapy agent for 48 h and the cytotoxic effect (percentage cytotoxicity) was measured. The cytotoxic effect was determined by well-known colorimetric MTT assay (Mossman, T. 1983 Rapid colorimetric assay for cellular growth and survival: application to proliferation and cytotoxicity assays Journal of Immunological Methods, volume 65, pages 55-63) for assessing cell metabolic activity.
(§2) Based on percentage cytotoxicity data, IC50 values were determined using the software GraphPad Prism version 4.01.
(§3) Combination Index (CI) values were determined for each drug concentration combination. The CI values were calculated based on the IC50 values using the formula as given in below.
A study was performed to determine the effect of the concentration of the recombinant lectin represented by SEQ ID NO: 1 on the IC50 of Cisplatin for cytotoxicity in T24 cells. Conversely the effect of the concentration of Cisplatin on the IC50 of the recombinant lectin represented by SEQ ID NO: 1.
Similarly another study was performed for Gemcitabine in combination with the recombinant lectin of SEQ ID NO: 1.
This was performed using the same techniques as in Example 1-1.
In a further study, T24 cells were treated with Cisplatin (1 μM-500 μM) in combination with SEQ ID NO: 1(2.5 μg/mL-80 μg/mL) for 48 h. Similarly another set of cells were treated with Gemcitabine (1 μM-300 μM) in combination with SEQ ID NO: 1 (2.5 μg/mL-80 μg/mL). Combination Index values were determined for each drug combination and resultant antagonistic, additive or synergistic effect was determined, as described in Example 1-2.

For a further experiment, the system named is PA-1 cell line. As to conditions: read-out: IC50 of Cisplatin.
Another experiment concerns KB cell line.
The next experiment has as its system MDA-MB-231 cell line. As to conditions: read-out: IC50 of Carboplatin. Here is the method:
as §1, §2, §3
A study was performed to determine the effect of the concentration of the recombinant lectin represented by SEQ ID NO: 1 on the IC50 of Paclitaxel for cytotoxicity in MDA-MB-231 cells. Conversely the effect of the concentration of Paclitaxel on the IC50 of the recombinant lectin represented by SEQ ID NO: 1.
Similarly another study was performed for Carboplatin in combination with the recombinant lectin of SEQ ID NO: 1.
In a further study, MDA-MB-231 cells were treated with Paclitaxel (0.001 nM-10 nM) in combination with SEQ ID NO: 1(2.5 μg/mL-80 μg/mL) for 48 h. Similarly another set of cells were treated with Carboplatin (10 μM-1000 μM) in combination with SEQ ID NO: 1 (2.5 μg/mL-80 μg/mL).

The test system of another experiment is PANC-1 cell line. Conditions: Homo sapiens. How it is done:
The cytotoxic effect on each combination was determined by MTT assay.
as §3

Another experiment has as its system HT-29 cell line. As to conditions: Homo sapiens.
Where [1] appears, read: SEQ ID NO: 1 at 0 μg/mL, read-out: IC50 of Cisplatin.
The mark [2] stands for this setting: SEQ ID NO: 1 at 5 μg/mL, read-out: IC50 of Cisplatin.
The mark [3] stands for this setting: SEQ ID NO: 1 at 10 μg/mL, read-out: IC50 of Cisplatin.
The mark [4] stands for this setting: SEQ ID NO: 1 at 20 μg/mL, read-out: IC50 of Cisplatin.
The mark [5] stands for this setting: SEQ ID NO: 1 at 40 μg/mL, read-out: IC50 of Cisplatin.

Where two headings read alike, the source gives them in different places.

Experimental for KB cell line: A study was performed to determine the effect of the concentration of the recombinant lectin represented by SEQ ID NO: 1 on the IC50 of5-FU for cytotoxicity in KB cells.
Similarly another study was performed for Cisplatin in combination with the recombinant lectin of SEQ ID NO: 1.
Similarly another set of cells were treated with Cisplatin(0.1 μM to 1.5 μM)in combination with SEQ ID NO: 1(5.0 μg/mL-90 μg/mL).
Experimental for PA-1 cell line: In a further study, PA-1 cells were treated with Cisplatin(0.01 μM-5 μM) in combination with SEQ ID NO: 1(1 μg/mL-20 μg/mL) for 48 h. Similarly another set of cells were treated with Paclitaxel (0.01 nM-5 nM) in combination with SEQ ID NO: 1 (1 μg/mL-20 μg/mL).

On to `N.N.[Cl][Pt][Cl]` [Cisplatin, reference compound], for which the “Conc. of other therapeutic agents showing synergistic effect” value in the experiment with T24 cell line (Cisplatin with SEQ ID NO: 1) fell in the range of 1 to 500 µM. The IC50 with T24 cell line (setting [1]) was determined as 39000 nM; with T24 cell line (setting [2]), 3800 nM; in the experiment with T24 cell line (setting [3]) it was 97.1 nM; in the experiment on T24 cell line (setting [4]) it was 34.4 nM; with T24 cell line (setting [5]) it was 83.6 nM; in the experiment on T24 cell line (SEQ ID NO: 1 at 80 μg/mL, read-out: IC50 of Cisplatin) it was 13.4 nM. The IC50 in the experiment with T24 cell line (SEQ ID NO: 1 at […], read-out: IC50 of Cisplatin) stood at 22900 nM; with PA-1 cell line (SEQ ID NO: 1 at 1 μg/mL) it was 716 nM; with PA-1 cell line (SEQ ID NO: 1 at 5 μg/mL), 93 nM; in the experiment on PA-1 cell line (SEQ ID NO: 1 at 10 μg/mL), 4.2 nM; with PA-1 cell line (SEQ ID NO: 1 at 15 μg/mL), 0.5 nM; in the experiment with PA-1 cell line (SEQ ID NO: 1 at 20 μg/mL), 0.1 nM. For the same molecule, the IC50 worked out at 314 nM in the experiment on PA-1 cell line (SEQ ID NO: 1 at […]); 722 nM in the experiment with KB cell line (setting [1]); 375 nM with KB cell line (setting [2]); 269 nM in the experiment with KB cell line (setting [3]); 134 nM with KB cell line (setting [4]); 66.2 nM with KB cell line (SEQ ID NO: 1 at 30 μg/mL, read-out: IC50 of Cisplatin). Besides, the IC50 was found to be 7.12 nM in the experiment with KB cell line (setting [5]) and 9.93 nM in the experiment with KB cell line (SEQ ID NO: 1 at 90 μg/mL, read-out: IC50 of Cisplatin).
Regarding `N.N.O=C([O-])C1(C(=O)[O-])CCC1.[Pt+2]` [Carboplatin, reference compound], the IC50 with MDA-MB-231 cell line (SEQ ID NO: 1 at 0 μg/mL) came out at 477000 nM; with MDA-MB-231 cell line (SEQ ID NO: 1 at 5 μg/mL), 3980 nM; with MDA-MB-231 cell line (SEQ ID NO: 1 at 10 μg/mL), 4920 nM; with MDA-MB-231 cell line (SEQ ID NO: 1 at 20 μg/mL), 8440 nM; with MDA-MB-231 cell line (SEQ ID NO: 1 at 40 μg/mL) it was 1420 nM; in the experiment on MDA-MB-231 cell line (SEQ ID NO: 1 at 80 μg/mL), 5870 nM. Moreover, the IC50 in the experiment on MDA-MB-231 cell line (SEQ ID NO: 1 at […]) stood at 226000 nM.
As to `O=c1[nH]cc(F)c(=O)[nH]1` [5-FU, 5-Fluorouracil, reference compound], the IC50 amounted to 87000 nM in the experiment with PANC-1 cell line (PANC-1, read-out: IC50 of 5-FU, SEQ ID NO: 1 at 0 μg/mL); 1410 nM with PANC-1 cell line (PANC-1, read-out: IC50 of 5-FU, SEQ ID NO: 1 at 5 μg/mL); 1260 nM with PANC-1 cell line (PANC-1, read-out: IC50 of 5-FU, SEQ ID NO: 1 at 10 μg/mL); 869 nM in the experiment on PANC-1 cell line (PANC-1, read-out: IC50 of 5-FU, SEQ ID NO: 1 at 20 μg/mL); 8450 nM in the experiment with PANC-1 cell line (PANC-1, read-out: IC50 of 5-FU, SEQ ID NO: 1 at 40 μg/mL); 725 nM in the experiment on PANC-1 cell line (PANC-1, read-out: IC50 of 5-FU, SEQ ID NO: 1 at 80 μg/mL). In addition, the IC50 in the experiment with PANC-1 cell line (PANC-1, read-out: IC50 of 5-FU, SEQ ID NO: 1 at […]) amounted to 297000 nM; in the experiment with HT-29 cell line (HT-29, read-out: IC50 of 5-FU, SEQ ID NO: 1 at 0 μg/mL), 137000 nM; with HT-29 cell line (HT-29, read-out: IC50 of 5-FU, SEQ ID NO: 1 at 1 μg/mL), 173000 nM; in the experiment with HT-29 cell line (HT-29, read-out: IC50 of 5-FU, SEQ ID NO: 1 at 5 μg/mL), 25900 nM; with HT-29 cell line (HT-29, read-out: IC50 of 5-FU, SEQ ID NO: 1 at 10 μg/mL), 4510 nM; in the experiment on HT-29 cell line (HT-29, read-out: IC50 of 5-FU, SEQ ID NO: 1 at 20 μg/mL), 282 nM. The IC50 with HT-29 cell line (HT-29, read-out: IC50 of 5-FU, SEQ ID NO: 1 at 40 μg/mL) is 1240 nM; in the experiment with HT-29 cell line (HT-29, read-out: IC50 of 5-FU, SEQ ID NO: 1 at 80 μg/mL) it was 4880 nM; in the experiment with KB cell line (Homo sapiens, KB, read-out: IC50 of 5-FU, SEQ ID NO: 1 at 0 μg/mL), 15 nM; with KB cell line (Homo sapiens, KB, read-out: IC50 of 5-FU, SEQ ID NO: 1 at 5 μg/mL), 0.1 nM; in the experiment with KB cell line (Homo sapiens, KB, read-out: IC50 of 5-FU, SEQ ID NO: 1 at 10 μg/mL), 0.00531 nM; with KB cell line (Homo sapiens, KB, read-out: IC50 of 5-FU, SEQ ID NO: 1 at 20 μg/mL), 0.0134 nM. Also, the IC50 in the experiment on KB cell line (Homo sapiens, KB, read-out: IC50 of 5-FU, SEQ ID NO: 1 at 30 μg/mL) turned out to be 0.00119 nM. The “Conc. of other therapeutic agents showing synergistic effect” value with KB cell line (5-FU with SEQ ID NO: 1, paired with SEQ ID NO: 1 conc.) fell in the range of 0.01 to 5 µM.
On to `CCc1c2c(nc3ccc(OC(=O)N4CCC(N5CCCCC5)CC4)cc13)-c1cc3c(c(=O)n1C2)COC(=O)[C@]3(O)CC` [Irinotecan, reference compound], for which the IC50 in the experiment with HT-29 cell line (HT-29, SEQ ID NO: 1 at 0 μg/mL, read-out: IC50 of Irinotecan) came out at 16200 nM; with HT-29 cell line (HT-29, SEQ ID NO: 1 at 1 μg/mL, read-out: IC50 of Irinotecan), 49200 nM; with HT-29 cell line (HT-29, SEQ ID NO: 1 at 5 μg/mL, read-out: IC50 of Irinotecan), 2780 nM; in the experiment with HT-29 cell line (HT-29, SEQ ID NO: 1 at 10 μg/mL, read-out: IC50 of Irinotecan) it was 5450 nM; in the experiment on HT-29 cell line (HT-29, SEQ ID NO: 1 at 20 μg/mL, read-out: IC50 of Irinotecan), 1340 nM; in the experiment with HT-29 cell line (HT-29, SEQ ID NO: 1 at 40 μg/mL, read-out: IC50 of Irinotecan) it was 278 nM. In the experiment with HT-29 cell line (HT-29, SEQ ID NO: 1 at 80 μg/mL, read-out: IC50 of Irinotecan), the IC50 is 167 nM.
On to `Nc1ccn([C@@H]2O[C@H](CO)[C@@H](O)C2(F)F)c(=O)n1` [Gemcitabine, reference compound], for which the “Conc. of other therapeutic agents showing synergistic effect” value with T24 cell line (Gemcitabine with SEQ ID NO: 1) is 1 to 300 µM. Moreover, the IC50 with T24 cell line (Homo sapiens, T-24, SEQ ID NO: 1 at 0 μg/mL, read-out: IC50 of Gemcitabine) was 15400 nM; in the experiment on T24 cell line (Homo sapiens, T-24, SEQ ID NO: 1 at 5 μg/mL, read-out: IC50 of Gemcitabine) it was 141 nM; in the experiment with T24 cell line (Homo sapiens, T-24, SEQ ID NO: 1 at 10 μg/mL, read-out: IC50 of Gemcitabine), 0.32 nM; in the experiment with T24 cell line (Homo sapiens, T-24, SEQ ID NO: 1 at 20 μg/mL, read-out: IC50 of Gemcitabine), 0.02 nM; in the experiment with T24 cell line (Homo sapiens, T-24, SEQ ID NO: 1 at […], read-out: IC50 of Gemcitabine) it was 802 nM; in the experiment on PANC-1 cell line (PANC-1, SEQ ID NO: 1 at 0 μg/mL, read-out: IC50 of Gemcitabine) it was 7410 nM. Further, the IC50 with PANC-1 cell line (PANC-1, SEQ ID NO: 1 at 5 μg/mL, read-out: IC50 of Gemcitabine) turned out to be 10800 nM; in the experiment on PANC-1 cell line (PANC-1, SEQ ID NO: 1 at 10 μg/mL, read-out: IC50 of Gemcitabine) it was 3040 nM; in the experiment with PANC-1 cell line (PANC-1, SEQ ID NO: 1 at 20 μg/mL, read-out: IC50 of Gemcitabine), 39 nM; in the experiment on PANC-1 cell line (PANC-1, SEQ ID NO: 1 at 40 μg/mL, read-out: IC50 of Gemcitabine) it was 38 nM; with PANC-1 cell line (PANC-1, SEQ ID NO: 1 at 80 μg/mL, read-out: IC50 of Gemcitabine), 10600 nM; with PANC-1 cell line (PANC-1, SEQ ID NO: 1 at […], read-out: IC50 of Gemcitabine) it was 15900 nM.
